In ChEMBL document CHEMBL5376003, “Structure-Activity Relationship of FL118 Platform Position 7 Versus Position 9-Derived Compounds and Their Mechanism of Action and Antitumor Activity” (J Med Chem, 2023):
The source made the active and inactive calls. The calls are words filed in the database; no cut-off is given here.

Experiments:
[1] = tested on: HCT-116; assay: Induction of apoptosis in human HCT-116 cells assessed as downregulation of PRKAR2B gene expression at 10 to 500 nM incubated for 6 to 48 hrs by RNA analysis; format: functional, cell-based; conditions: dose 10-500 nM, time 6-48 hrs
[2] = tested on: HCT-116; assay: Induction of apoptosis in human HCT-116 cells assessed as modulation of TOP2A mRNA expression at 10 to 500 nM incubated for 6 to 48 hrs by RNA analysis; format: functional, cell-based; conditions: dose 10-500 nM, time 6-48 hrs
[3] = tested on: PDX14244; assay: Antitumor activity against human PDX14244 cells xenografted in SCID mouse model assessed as reduction in tumor volume at 8 mg/kg,po administrated once per week for 3 weeks; format: functional, organism-based
[4] = tested on: HCT-116; assay: Induction of apoptosis in human HCT-116 cells assessed as upregulation of XPC mRNA expression at 10 to 500 nM incubated for 6 to 48 hrs by RNA analysis; format: functional, cell-based; conditions: dose 10-500 nM, time 6-48 hrs
[5] = tested on: HCT-116; assay: Induction of apoptosis in human HCT-116 cells assessed as downregulation of NUP107 gene expression at 10 to 500 nM incubated for 6 to 48 hrs by RNA analysis; format: functional, cell-based; conditions: dose 10-500 nM, time 6-48 hrs
[6] = tested on: HCT-116; assay: Induction of apoptosis in human HCT-116 cells assessed as modulation of DDX54 mRNA expression at 10 to 500 nM incubated for 6 to 48 hrs by RNA analysis; format: functional, cell-based; conditions: dose 10-500 nM, time 6-48 hrs
[7] = tested on: HCT-116; assay: Growth inhibition of human HCT-116 cells incubated for 48 hrs by MTT reagent based ELISA reader analysis; format: functional, cell-based; conditions: HCT-116, 48 h
[8] = tested on: HCT-116; assay: Induction of apoptosis in human HCT-116 cells assessed as upregulation of DDX5 mRNA expression at 500 nM incubated for 6 hrs by RNA analysis; format: functional, cell-based
[9] = tested on: HCT-116; assay: Induction of apoptosis in human HCT-116 cells assessed as modulation of DDX21 mRNA expression at 10 to 500 nM incubated for 6 to 48 hrs by RNA analysis; format: functional, cell-based; conditions: dose 10-500 nM, time 6-48 hrs
[10] = tested on: HCT-116; assay: Induction of apoptosis in human HCT-116 cells assessed as downregulation of CTPS2 gene expression at 10 to 500 nM incubated for 6 to 48 hrs by RNA analysis; format: functional, cell-based; conditions: dose 10-500 nM, time 6-48 hrs
[11] = tested on: HCT-116; assay: Activation of innate immune response in human HCT-116 cells assessed as upregulation of IFIH1 gene expression at 10 to 500 nM incubated for 6 to 48 hrs by RNA analysis; format: functional, cell-based; conditions: dose 10-500 nM, time 6-48 hrs
[12] = tested on: HCT-116; assay: Induction of apoptosis in human HCT-116 cells assessed as downregulation of NME4 gene expression at 10 to 500 nM incubated for 6 to 48 hrs by RNA analysis; format: functional, cell-based; conditions: dose 10-500 nM, time 6-48 hrs
[13] = tested on: HCT-116; assay: Induction of apoptosis in human HCT-116 cells assessed as downregulation of GTF2H1 mRNA expression at 10 to 500 nM incubated for 6 to 48 hrs by RNA analysis; format: functional, cell-based; conditions: dose 10-500 nM, time 6-48 hrs
[14] = tested on: HCT-116; assay: Induction of apoptosis in human HCT-116 cells assessed as upregulation of CDKN1A mRNA expression at 10 to 500 nM incubated for 6 to 48 hrs by RNA analysis; format: functional, cell-based; conditions: dose 10-500 nM, time 6-48 hrs
[15] = tested on: HCT-116; assay: Induction of apoptosis in human HCT-116 cells assessed as downregulation of NUP62 gene expression at 10 to 500 nM incubated for 6 to 48 hrs by RNA analysis; format: functional, cell-based; conditions: dose 10-500 nM, time 6-48 hrs
[16] = tested on: HCT-116; assay: Induction of apoptosis in human HCT-116 cells assessed as downregulation of NUP43 gene expression at 10 to 500 nM incubated for 6 to 48 hrs by RNA analysis; format: functional, cell-based; conditions: dose 10-500 nM, time 6-48 hrs
[17] = tested on: HCT-116; assay: Activation of innate immune response in human HCT-116 cells assessed as upregulation of IRF3 gene expression at 10 to 500 nM incubated for 6 to 48 hrs by RNA analysis; format: functional, cell-based; conditions: dose 10-500 nM, time 6-48 hrs
[18] = tested on: HCT-116; assay: Activation of innate immune response in human HCT-116 cells assessed as upregulation of IL-12B gene expression at 10 to 500 nM incubated for 6 to 48 hrs by RNA analysis; format: functional, cell-based; conditions: dose 10-500 nM, time 6-48 hrs
[19] = tested on: HCT-116; assay: Activation of innate immune response in human HCT-116 cells assessed as upregulation of IL-12RB2 gene expression at 10 to 500 nM incubated for 6 to 48 hrs by RNA analysis; format: functional, cell-based; conditions: dose 10-500 nM, time 6-48 hrs
[20] = tested on: HCT-116; assay: Induction of apoptosis in human HCT-116 cells assessed as downregulation of CTPS1 gene expression at 10 to 500 nM incubated for 6 to 48 hrs by RNA analysis; format: functional, cell-based; conditions: dose 10-500 nM, time 6-48 hrs
[21] = tested on: HCT-116; assay: Activation of innate immune response in human HCT-116 cells assessed as upregulation of IRF5 gene expression at 10 to 500 nM incubated for 6 to 48 hrs by RNA analysis; format: functional, cell-based; conditions: dose 10-500 nM, time 6-48 hrs
[22] = tested on: HCT-116; assay: Induction of apoptosis in human HCT-116 cells assessed as modulation of DDX17 mRNA expression at 10 to 500 nM incubated for 6 to 48 hrs by RNA analysis; format: functional, cell-based; conditions: dose 10-500 nM, time 6-48 hrs
[23] = tested on: MCF7; assay: Growth inhibition of human MCF7 cells incubated for 48 hrs by MTT reagent based ELISA reader analysis; format: functional, cell-based; conditions: MCF7, 48 h
[24] = tested on: HCT-116; assay: Induction of apoptosis in human HCT-116 cells assessed as downregulation of TXNRD1 gene expression at 10 to 500 nM incubated for 6 to 48 hrs by RNA analysis; format: functional, cell-based; conditions: dose 10-500 nM, time 6-48 hrs
[25] = tested on: HCT-116; assay: Induction of apoptosis in human HCT-116 cells assessed as downregulation of GART gene expression at 10 to 500 nM incubated for 6 to 48 hrs by RNA analysis; format: functional, cell-based; conditions: dose 10-500 nM, time 6-48 hrs
[26] = tested on: HCT-116; assay: Induction of apoptosis in human HCT-116 cells assessed as downregulation of NUDT1 gene expression at 10 to 500 nM incubated for 6 to 48 hrs by RNA analysis; format: functional, cell-based; conditions: dose 10-500 nM, time 6-48 hrs
[27] = tested on: HCT-116; assay: Induction of apoptosis in human HCT-116 cells assessed as modulation of TOP3A mRNA expression at 10 to 500 nM incubated for 6 to 48 hrs by RNA analysis; format: functional, cell-based; conditions: dose 10-500 nM, time 6-48 hrs
[28] = tested on: HCT-116; assay: Induction of apoptosis in human HCT-116 cells assessed as downregulation of TYMS gene expression at 10 to 500 nM incubated for 6 to 48 hrs by RNA analysis; format: functional, cell-based; conditions: dose 10-500 nM, time 6-48 hrs
[29] = tested on: HCT-116; assay: Induction of apoptosis in human HCT-116 cells assessed as upregulation of ATF3 mRNA expression at 10 to 500 nM incubated for 6 to 48 hrs by RNA analysis; format: functional, cell-based; conditions: dose 10-500 nM, time 6-48 hrs
[30] = tested on: HCT-116; assay: Induction of apoptosis in human HCT-116 cells assessed as downregulation of RFC3 mRNA expression at 10 to 500 nM incubated for 6 to 48 hrs by RNA analysis; format: functional, cell-based; conditions: dose 10-500 nM, time 6-48 hrs
[31] = tested on: HCT-116; assay: Induction of apoptosis in human HCT-116 cells assessed as downregulation of PPAT gene expression at 10 to 500 nM incubated for 6 to 48 hrs by RNA analysis; format: functional, cell-based; conditions: dose 10-500 nM, time 6-48 hrs
[32] = tested on: HCT-116; assay: Induction of apoptosis in human HCT-116 cells assessed as modulation of DDX47 mRNA expression at 10 to 500 nM incubated for 6 to 48 hrs by RNA analysis; format: functional, cell-based; conditions: dose 10-500 nM, time 6-48 hrs
[33] = tested on: HCT-116; assay: Induction of apoptosis in human HCT-116 cells assessed as downregulation of DPYD gene expression at 10 to 500 nM incubated for 6 to 48 hrs by RNA analysis; format: functional, cell-based; conditions: dose 10-500 nM, time 6-48 hrs
[34] = tested on: HCT-116; assay: Induction of apoptosis in human HCT-116 cells assessed as upregulation of ADA mRNA expression at 10 to 500 nM incubated for 6 to 48 hrs by RNA analysis; format: functional, cell-based; conditions: dose 10-500 nM, time 6-48 hrs

Row | SMILES | Activity [1] | Activity [2] | Activity [4] | Activity [5] | Activity [6] | IC50 [7] [nM] | Activity [8] | Activity [9] | Activity [10] | Activity [11] | Activity [12] | Activity [13] | Activity [14] | Activity [15] | Activity [16] | Activity [17] | Activity [18] | Activity [19] | Activity [20] | Activity [21] | also measured
1 | CC[C@@]1(O)C(=O)OCc2c1cc1n(c2=O)Cc2c-1nc1cc3c(cc1c2-c1cc(OC)cc(OC)c1)OCO3 | Active | Active | Active | Active | Active | 99.4 | Active | Active | Active | Active | Active | Active | Active | Active | Active | Active | Active | Active | Active | Active | Activity [3]: Active; Activity [22]: Active; IC50 [23]: < 6.4 nM; Activity [24]: Active; Activity [25]: Active; Activity [26]: Active; Activity [27]: Active; Activity [28]: Active; Activity [29]: Active; Activity [30]: Active; Activity [31]: Active
2 | CC[C@@]1(O)C(=O)OCc2c1cc1n(c2=O)Cc2c-1nc1cc3c(cc1c2-c1ccc(OC)cc1)OCO3 | Active | Active | Active | Active | Active | 17.7 | Active | Active | Active | Active | Active | Active | Active | Active | Active | Active | Active | Active | Active | Active | Activity [3]: Active; Activity [32]: Active; Activity [33]: Active; Activity [34]: Active; Activity [22]: Active; IC50 [23]: 45.8 nM; Activity [24]: Active; Activity [25]: Active; Activity [26]: Active; Activity [27]: Active; Activity [28]: Active; Activity [29]: Active; Activity [30]: Active; Activity [31]: Active
3 | CC[C@@]1(O)C(=O)OCc2c1cc1n(c2=O)Cc2cc3cc4c(cc3nc2-1)OCO4 | Active | Active | Active | Active | Active | 23.5 | Active | Active | Active | Active | Active | Active | Active | Active | Active | Active | Active | Active | Active | Active | Activity [32]: Active; Activity [33]: Active; Activity [34]: Active; Activity [22]: Active; IC50 [23]: 32.2 nM; Activity [24]: Active; Activity [25]: Active; Activity [26]: Active; Activity [27]: Active; Activity [28]: Active; Activity [29]: Active; Activity [30]: Active; Activity [31]: Active
4 | CCc1ccc(-c2c3c(nc4cc5c(cc24)OCO5)-c2cc4c(c(=O)n2C3)COC(=O)[C@]4(O)CC)cc1 | Active | Active | Active | Active | Active | 55.6 | Active | Active | Active | Active | Active | Active | Active | Active | Active | Active | Active | Active | Active | Active | Activity [3]: Active; Activity [32]: Active; Activity [33]: Active; Activity [34]: Active; Activity [22]: Active; IC50 [23]: 47.4 nM; Activity [24]: Active; Activity [25]: Active; Activity [26]: Active; Activity [27]: Active; Activity [28]: Active; Activity [29]: Active; Activity [30]: Active; Activity [31]: Active
